Where “and” joins values, the source holds several entries; their conditions need not be identical. Equal entries are not always repeated. Entries after “also recorded” stand apart in the source; their conditions may differ. Where two headings read alike, the source gives them in different places.
Assays:
[1] = system: MDA-MB-468; test: Cell counts, MDA-MB-468; type: cell-based; conditions: for cell counts: single wells
Description: (§1) Cells were harvested using Trypsin-EDTA at the designated time points. […] Two 48-well plates were used per cell line, and they were measured at 0 h, 12 h, 24 h, 48 h, 4 d and 7 d, respectively.
(§2) In the 1st plate, cells were treated with the composition according to the invention and medium was changed at 0 h and 3 d. […] As a result, LC-50 curves were generated in the 1st week.
(§3) In the 2nd plate, 7 d of the 1st week (LC-50) is the same as 0 h of the 2nd week (recovery).
(§4) At 0 h of the 2nd week, medium was exchanged with untreated medium for the remainder of the experiment. The untreated controls were not measured in the 2nd week (recovery) due to overconfluence by the end of the 1st week. As a result, Recovery curves were generated in the 2nd week.

[2] = system: SKBR3; test: Cell counts, SKBR3; type: cell-based; conditions: for cell counts: single wells
Description: as §1, §2, §3, §4

[3] = system: BJ; conditions: for The viability / The absorbance, group - Blank / The absorbance, Mean value / The absorbance: BJ; for The absorbance, group - Blank: mean minus blank; for The absorbance: single value; for The cytotoxicity: human, 220 nM
Description: Cancer cell lines HCC 1419, MCF-7, MDA-MB-468, SKBR3, PC3, HT1299, Saos-2, C-6, AsPc, MDA-MB-231, RKO, HeLa and TT, and normal cell lines HME 50 HT, BJ and CCD-1074sk were tested for changes in metabolism (XTT assay) and cell death (cell counts).
Cells were plated into 48-well Corning CellBind™ plates at densities of 20,000 cells for normal cells and 10,000˜20,000 cells for cancer cells. 24 to 48 h after plating, cells were treated with the composition according to the invention at concentrations of 4.5e-2M. The first time point treated with the composition of the invention is 0 h. At 3 days after the first treatment with the composition of the invention, medium was changed and the composition of the invention at the same concentrations were added to the cultured cells.
The XTT assay is an accepted analysis technique for viability and cytotoxicity of anticancer drugs or other pharmaceutical compositions. Cells were seeded in a 96-well tissue culture plate at a density of 10,000 cells for normal cells and 5,000 cells for cancer cells. After incubation period, the formazan dye formed was quantitated using an ELISA reader. The optimal wavelength used in experiments was 500 nm, and it was measured at 0 h, 12 h, 24 h, 48 h, 4 d and 7 d, respectively. The obtained values were generated using the software SoftMax Pro 4.8.
The cell viability was calculated according to the manufacturer's instructions as follows (the term “blank” means XTT in medium only):
Cellular cytotoxicity was calculated according to the manufacturer's instructions as follows: […]

[4] = system: TT; test: XTT cell viability assay, TT; type: cell-based; conditions: for The absorbance, group - Blank: mean minus blank; for The absorbance: single value

CC(=O)O[C@H]1C(=O)[C@@]2(C)[C@H]([C@H](OC(=O)c3ccccc3)[C@]3(O)C[C@H](OC(=O)[C@H](O)[C@@H](NC(=O)c4ccccc4)c4ccccc4)C(C)=C1C3(C)C)[C@]1(OC(C)=O)CO[C@@H]1C[C@@H]2O [Taxol]
cell counts (trend) [1]: increasing; also recorded: again recovering | cell counts, Mean value ([1]; 1st week (LC50), 0 h): 36000 | cell counts ([1]; 1st week (LC50), 0 h): 32000 and 40000 | cell counts, Mean value ([1]; 1st week (LC50), 24 h): 23333 | cell counts ([1]; 1st week (LC50), 24 h): 24000 and 30000 and 16000 | cell counts, Mean value ([1]; 1st week (LC50), 48 h): 13000 | cell counts ([1]; 1st week (LC50), 48 h): 10000 and 12000 and 17000 | cell counts, Mean value ([1]; 1st week (LC50), 4 d): 17667 | cell counts ([1]; 1st week (LC50), 4 d): 15000 and 18000 and 20000 | cell counts, Mean value ([1]; 1st week (LC50), 7 d): 9000 | cell counts, Mean value ([1]; 2nd week (recovery), 0 h): 8333 | cell counts, Mean value ([1]; 2nd week (recovery), 24 h): 3667 | cell counts ([1]; 2nd week (recovery), 24 h): 4000 and 3000 | cell counts, Mean value ([1]; 2nd week (recovery), 48 h): 8333 | cell counts, Mean value ([1]; 2nd week (recovery), 4 d): 9333 | cell counts ([1]; 2nd week (recovery), 4 d): 9000 and 10000 | cell counts, Mean value ([1]; 2nd week (recovery), 7 d): 11667 | cell counts ([1]; 2nd week (recovery), 7 d): 9000 and 11000 and 15000 | cell counts, Mean value ([2]; 1st week (LC50), 0 h): 2667 | cell counts ([2]; 1st week (LC50), 0 h): 2000 and 4000 | cell counts, Mean value ([2]; 1st week (LC50), 24 h): 9333 | cell counts ([2]; 1st week (LC50), 24 h): 6000 and 11000 | cell counts, Mean value ([2]; 1st week (LC50), 48 h): 4000 | cell counts ([2]; 1st week (LC50), 48 h): 4000 | cell counts, Mean value ([2]; 1st week (LC50), 4 d): 1000 | cell counts ([2]; 1st week (LC50), 4 d): 1000 | cell counts, Mean value ([2]; 1st week (LC50), 7 d): 3000 | cell counts, Mean value ([2]; 2nd week (recovery), 0 h): 70667 | cell counts ([2]; 2nd week (recovery), 0 h): 60000 and 80000 and 72000 | cell counts, Mean value ([2]; 2nd week (recovery), 24 h): 49333 | cell counts ([2]; 2nd week (recovery), 24 h): 32000 and 60000 and 56000 | cell counts, Mean value ([2]; 2nd week (recovery), 48 h): 44000 | cell counts ([2]; 2nd week (recovery), 48 h): 56000 and 36000 and 40000 | cell counts, Mean value ([2]; 2nd week (recovery), 4 d): 17250 | cell counts ([2]; 2nd week (recovery), 4 d): 15000 and 12500 and 22000 | cell counts, Mean value ([2]; 2nd week (recovery), 7 d): 10000 | cell counts ([2]; 2nd week (recovery), 7 d): 10000 and 12000 and 8000 | The viability ([3]; 1st week (LC50), 0 h): 0.6817 | The absorbance, group - Blank ([3]; 1st week (LC50), 0 h): 0.9194 | The absorbance, Mean value ([3]; 1st week (LC50), 0 h): 1.2407 | The absorbance ([3]; 1st week (LC50), 0 h): 1.2557 and 1.2397 and 1.2268 | The viability ([3]; 1st week (LC50), 12 h): 0.3531 | The absorbance, group - Blank ([3]; 1st week (LC50), 12 h): 0.1792 | The absorbance, Mean value ([3]; 1st week (LC50), 12 h): 0.5006 | The absorbance ([3]; 1st week (LC50), 12 h): 0.504 and 0.4951 and 0.5027 | The viability ([3]; 1st week (LC50), 24 h): 0.1484 | The absorbance, group - Blank ([3]; 1st week (LC50), 24 h): 0.1674 | The absorbance, Mean value ([3]; 1st week (LC50), 24 h): 0.4887 | The absorbance ([3]; 1st week (LC50), 24 h): 0.492 and 0.4863 and 0.4879 | The viability ([3]; 1st week (LC50), 48 h): 0.6457 | The absorbance, group - Blank ([3]; 1st week (LC50), 48 h): 1.3032 | The absorbance, Mean value ([3]; 1st week (LC50), 48 h): 1.6245 | The absorbance ([3]; 1st week (LC50), 48 h): 1.6877 and 1.5017 and 1.6842 | The viability ([3]; 1st week (LC50), 4 d): 0.5117 | The absorbance, group - Blank ([3]; 1st week (LC50), 4 d): 1.1564 | The absorbance, Mean value ([3]; 1st week (LC50), 4 d): 1.4777 | The absorbance ([3]; 1st week (LC50), 4 d): 1.4687 and 1.4879 and 1.4766 | The viability ([3]; 1st week (LC50), 7 d): 0.4809 | The absorbance, group - Blank ([3]; 1st week (LC50), 7 d): 1.0576 | The absorbance, Mean value ([3]; 1st week (LC50), 7 d): 1.3790 | The absorbance ([3]; 1st week (LC50), 7 d): 1.3256 and 1.3677 and 1.4436 | The viability ([3]; 2nd week (recovery), 0 h): 0.8858 | The absorbance, group - Blank ([3]; 2nd week (recovery), 0 h): 0.8852 | The absorbance, Mean value ([3]; 2nd week (recovery), 0 h): 1.2065 | The absorbance ([3]; 2nd week (recovery), 0 h): 1.1468 and 1.2843 and 1.1885 | The viability ([3]; 2nd week (recovery), 24 h): 2.1460 | The absorbance, group - Blank ([3]; 2nd week (recovery), 24 h): 1.0893 | The absorbance, Mean value ([3]; 2nd week (recovery), 24 h): 1.4107 | The absorbance ([3]; 2nd week (recovery), 24 h): 1.3211 and 1.5144 and 1.3966 | The viability ([3]; 2nd week (recovery), 48 h): 0.1254 | The absorbance, group - Blank ([3]; 2nd week (recovery), 48 h): 0.1415 | The absorbance, Mean value ([3]; 2nd week (recovery), 48 h): 0.4629 | The absorbance ([3]; 2nd week (recovery), 48 h): 0.451 and 0.4672 and 0.4704 | The viability ([3]; 2nd week (recovery), 4 d): 0.7693 | The absorbance, group - Blank ([3]; 2nd week (recovery), 4 d): 1.5524 | The absorbance, Mean value ([3]; 2nd week (recovery), 4 d): 1.8738 | The absorbance ([3]; 2nd week (recovery), 4 d): 1.8912 and 1.9201 and 1.8101 | The cytotoxicity ([3]; 12 h): 0.6469 | The cytotoxicity ([3]; 7 d): 0.5191 | The cytotoxicity ([4]; 1st week (LC50), 0 h): 0.6095 | The viability ([4]; 1st week (LC50), 0 h): 0.3905 | The absorbance, group - Blank ([4]; 1st week (LC50), 0 h): 0.1760 | The absorbance, Mean value ([4]; 1st week (LC50), 0 h): 0.4394 | The absorbance ([4]; 1st week (LC50), 0 h): 0.4452 and 0.4456 | The cytotoxicity ([4]; 1st week (LC50), 12 h): −0.2604 | The viability ([4]; 1st week (LC50), 12 h): 1.2604 | The absorbance, group - Blank ([4]; 1st week (LC50), 12 h): 1.5590 | The absorbance, Mean value ([4]; 1st week (LC50), 12 h): 1.8224 | The absorbance ([4]; 1st week (LC50), 12 h): 1.512 and 1.5452 | The cytotoxicity ([4]; 1st week (LC50), 24 h): −0.0831 | The viability ([4]; 1st week (LC50), 24 h): 1.0831 | The absorbance, group - Blank ([4]; 1st week (LC50), 24 h): 2.2745 | The absorbance, Mean value ([4]; 1st week (LC50), 24 h): 2.5379 | The cytotoxicity ([4]; 1st week (LC50), 48 h): 0.5671 | The viability ([4]; 1st week (LC50), 48 h): 0.4329 | The absorbance, group - Blank ([4]; 1st week (LC50), 48 h): 1.1834 | The absorbance, Mean value ([4]; 1st week (LC50), 48 h): 1.4468 | The absorbance ([4]; 1st week (LC50), 48 h): 1.6834 and 1.3166 | The cytotoxicity ([4]; 1st week (LC50), 4 d): −0.3186 | The viability ([4]; 1st week (LC50), 4 d): 1.3186 | The absorbance, group - Blank ([4]; 1st week (LC50), 4 d): 1.9816 | The cytotoxicity ([4]; 1st week (LC50), 7 d): 0.5080 | The viability ([4]; 1st week (LC50), 7 d): 0.4920 | The absorbance, group - Blank ([4]; 1st week (LC50), 7 d): 0.9498 | The absorbance, Mean value ([4]; 1st week (LC50), 7 d): 1.2132 | The absorbance ([4]; 1st week (LC50), 7 d): 1.2763 | The cytotoxicity ([4]; 2nd week (recovery), 0 h): −3.3443 | The viability ([4]; 2nd week (recovery), 0 h): 4.3443 | The absorbance, group - Blank ([4]; 2nd week (recovery), 0 h): 1.9578 | The absorbance, Mean value ([4]; 2nd week (recovery), 0 h): 2.2212 | The cytotoxicity ([4]; 2nd week (recovery), 12 h): −0.1062 | The viability ([4]; 2nd week (recovery), 12 h): 1.1062 | The absorbance, group - Blank ([4]; 2nd week (recovery), 12 h): 2.3230 | The absorbance, Mean value ([4]; 2nd week (recovery), 12 h): 2.5864 | The cytotoxicity ([4]; 2nd week (recovery), 24 h): 0.5481 | The viability ([4]; 2nd week (recovery), 24 h): 0.4519 | The absorbance, group - Blank ([4]; 2nd week (recovery), 24 h): 1.2354 | The absorbance, Mean value ([4]; 2nd week (recovery), 24 h): 1.4988 | The cytotoxicity ([4]; 2nd week (recovery), 48 h): 0.6857 | The viability ([4]; 2nd week (recovery), 48 h): 0.3143 | The absorbance, group - Blank ([4]; 2nd week (recovery), 48 h): 0.4723 | The absorbance, Mean value ([4]; 2nd week (recovery), 48 h): 0.7357 | The cytotoxicity ([4]; 2nd week (recovery), 4 d): 0.8411 | The viability ([4]; 2nd week (recovery), 4 d): 0.1589 | The absorbance, group - Blank ([4]; 2nd week (recovery), 4 d): 0.3067 | The absorbance, Mean value ([4]; 2nd week (recovery), 4 d): 0.5701 | The absorbance ([4]; 2nd week (recovery), 4 d): 0.4887 and 0.7079 and 0.5136 | The cytotoxicity ([4]; 2nd week (recovery), 7 d): −3.3443 | The viability ([4]; 2nd week (recovery), 7 d): 4.3443 | The absorbance, group - Blank ([4]; 2nd week (recovery), 7 d): 1.9578 | The absorbance, Mean value ([4]; 2nd week (recovery), 7 d): 0.2634 | The absorbance ([4]; 2nd week (recovery), 7 d): 0.2616 and 0.2542 and 0.2744
